Measured values: patent US20230017045A1, “PYRIDINE AND PYRIMIDINE CARBOXYLATE HERBICIDES AND METHODS OF USE THEREOF” (Dow AgroSciences LLC, priority 2017, published 2023)
Read-outs that look alike come from different tables or passages of the source.

Tested on: test plant species
Experiment: Post-emergent herbicidal activity test (greenhouse, foliar spray, visual growth reduction)
Type: in vivo
Settings: post-emergence, 336 h, 140 g ai/ha
Summary of the method: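 Visual percent injury (0-100) rated 14 d after treatment, relative to nontreated and solvent-blank plants. Test plants at first or second true leaf stage received an overhead track-sprayer application at 187 L/ha. Compounds were formulated in aqueous acetone/DMSO carrier containing crop oil concentrate and X-77 surfactant.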

[1] = ECHCG: barnyardgrass (Echinochloa crus-galli), 14 days after application, read-out: Visual Growth Reduction (%) 14 Days After Application, ECHCG
[2] = IPOHE: ivy-leaf morning glory (Ipomoea hederacea), 14 days after application, read-out: Visual Growth Reduction (%) 14 Days After Application, IPOHE
[3] = KCHSC: kochia (Bassia scoparia), 14 days after application, read-out: Visual Growth Reduction (%) 14 Days After Application, KCHSC
[4] = ORYSA: rice (Oryza sativa), 14 days after application, read-out: Visual Growth Reduction (%) 14 Days After Application, ORYSA
[5] = SETFA: giant foxtail (Setaria faberi), 14 days after application, read-out: Visual Growth Reduction (%) 14 Days After Application, SETFA
[6] = SORVU: grain sorghum (Sorghum vulgare), 14 days after application, read-out: Visual Growth Reduction (%) 14 Days After Application, SORVU
[7] = STEME: common chickweed (Stellaria media), 14 days after application, read-out: Visual Growth Reduction (%) 14 Days After Application, STEME
[8] = TRZAS: wheat, spring (Triticum aestivum), 14 days after application, read-out: Visual Growth Reduction (%) 14 Days After Application, TRZAS
[9] = blackgrass (Alopecurus myosuroides), 14 Days After Application, read-out: Visual Growth Reduction (%) ALOMY
[10] = canada thistle (Cirsium arvense), 14 Days After Application, read-out: Visual Growth Reduction (%) CIRAR
[11] = crabgrass (Digitaria sanguinalis), 14 Days After Application, read-out: Visual Growth Reduction (%) DIGSA
[12] = lambsquarters (Chenopodium album), 14 Days After Application, read-out: Visual Growth Reduction (%) CHEAL
[13] = redroot pigweed (Amaranthus retroflexus), 14 Days After Application, read-out: Visual Growth Reduction (%) AMARE
[14] = wild oat (Avena fatua), 14 Days After Application, read-out: Visual Growth Reduction (%) AVEFA
[15] = yellow nutsedge (Cyperus esculentus), 14 Days After Application, read-out: Visual Growth Reduction (%) CYPES

| Compound | pest or weed control at 140 g/ha [1] | pest or weed control at 140 g/ha [2] | pest or weed control at 140 g/ha [3] | pest or weed control at 140 g/ha [4] | pest or weed control at 140 g/ha [5] | pest or weed control at 140 g/ha [6] | pest or weed control at 140 g/ha [7] | pest or weed control at 140 g/ha [8] | pest or weed control at 140 g/ha [9] | pest or weed control at 140 g/ha [10] | pest or weed control at 140 g/ha [11] | pest or weed control at 140 g/ha [12] | pest or weed control at 140 g/ha [13] | pest or weed control at 140 g/ha [14] | pest or weed control at 140 g/ha [15] |
| --- | --- | --- | --- | --- | --- | --- | --- | --- | --- | --- | --- | --- | --- | --- | --- |
| CCOc1cc(C(F)(F)F)ccc1-c1nc(C(=O)OC)c(Cl)cc1F [F311, Methyl 3-chloro-6-(2-ethoxy-4-(trifluoromethyl)phenyl)-5-fluoropicolinate] | 0 to 29% | 95 to 100% | 0 to 29% | 0 to 29% | 0 to 29% | 75 to 84% | 0 to 29% | 0 to 29% | 0 to 29% | 0 to 29% | 0 to 29% | 30 to 44% | 0 to 29% | 0 to 29% | 0 to 29% |
| COC(=O)c1nc(-c2ccc(C(F)(F)F)cc2F)ncc1Cl [F312, Methyl 5-chloro-2-(2-fluoro-4-(trifluoromethyl)phenyl) pyrimidine-4-carboxylate] | 75 to 84% | 95 to 100% | 0 to 29% | 0 to 29% | 60 to 74% | 85 to 94% | 0 to 29% | 30 to 44% | 0 to 29% | 85 to 94% | 85 to 94% | 85 to 94% | 85 to 94% | 0 to 29% | 45 to 59% |
| COC(=O)c1nc(-c2ccc(C(F)(F)F)cc2OC)ncc1Cl [F313, methyl 5-chloro-2-(2-methoxy-4-(trifluoromethyl)phenyl)pyrimidine-4-carboxylate] | 60 to 74% | 95 to 100% | 0 to 29% | 0 to 29% | 60 to 74% | 85 to 94% | 0 to 29% | 0 to 29% | 0 to 29% | 45 to 59% | 75 to 84% | 30 to 44% | 45 to 59% | 0 to 29% | 0 to 29% |
| O=C(O)c1nc(-c2ccc(C(F)(F)F)c(Cl)c2)ccc1Cl [F314, 3-Chloro-6-(3-chloro-4-(trifluoromethyl)phenyl) picolinic acid] | 0 to 29% | 95 to 100% | 0 to 29% | 0 to 29% | 0 to 29% | 75 to 84% | 0 to 29% | 0 to 29% | 0 to 29% | 45 to 59% | 75 to 84% | 30 to 44% | 0 to 29% | 0 to 29% | 0 to 29% |
| O=C(O)c1nc(-c2ccc(C(F)(F)F)c(F)c2)ccc1Cl [F315, 3-Chloro-6-(3-fluoro-4-(trifluoromethyl)phenyl) picolinic acid] | 0 to 29% | 95 to 100% | 0 to 29% | 0 to 29% | 60 to 74% | 85 to 94% | 0 to 29% | 60 to 74% | 0 to 29% | 60 to 74% | 75 to 84% | 60 to 74% | 60 to 74% | 0 to 29% | 60 to 74% |
| Cc1cc(-c2ccc(Cl)c(C(=O)O)n2)ccc1C(F)(F)F [F316, 3-Chloro-6-(3-methyl-4-(trifluoromethyl)phenyl) picolinic acid] | 0 to 29% | 60 to 74% | 0 to 29% | 0 to 29% | 0 to 29% | 0 to 29% | 0 to 29% | 0 to 29% | 0 to 29% | 30 to 44% | 0 to 29% | 30 to 44% | 0 to 29% | 0 to 29% | 0 to 29% |
| COc1cc(-c2ccc(Cl)c(C(=O)O)n2)ccc1C(F)(F)F [F317, 3-Chloro-6-(3-methoxy-4-(trifluoromethyl)phenyl)picolinic acid] | 0 to 29% | 60 to 74% | 0 to 29% | 0 to 29% | 0 to 29% | 0 to 29% | 0 to 29% | 0 to 29% | 0 to 29% | 0 to 29% | 0 to 29% | 0 to 29% | 0 to 29% | 0 to 29% | 0 to 29% |
| COC(=O)c1nc(-c2cc3nonc3cc2F)c(F)cc1Cl [F318, Methyl 3-chloro-5-fluoro-6-(6-fluorobenzo[c][1,2,5]oxadiazol-5-yl)picolinate] | 85 to 94% | 95 to 100% | 0 to 29% | 0 to 29% | 75 to 84% | 85 to 94% | 0 to 29% | 0 to 29% | 0 to 29% | 0 to 29% | 85 to 94% | 60 to 74% | 60 to 74% | 0 to 29% | 0 to 29% |
| COC(=O)c1nc(-c2ccc(C(F)F)cc2)ncc1Cl [F319, Methyl 5-chloro-2-(4-(difluoromethyl)phenyl)pyrimidine-4-carboxylate] | 0 to 29% | 30 to 44% | 0 to 29% | 0 to 29% | 0 to 29% | 0 to 29% | 0 to 29% | 0 to 29% | 0 to 29% | 0 to 29% | 0 to 29% | 30 to 44% | 0 to 29% | 0 to 29% | 0 to 29% |
| COC(=O)c1nc(-c2ccc3cc[nH]c3c2)c(F)cc1Cl [F320, Methyl 3-chloro-5-fluoro-6-(1H-indol-6-yl)picolinate] | 0 to 29% | 60 to 74% | 0 to 29% | 0 to 29% | 0 to 29% | 0 to 29% | 0 to 29% | 0 to 29% | 0 to 29% | 30 to 44% | 0 to 29% | 60 to 74% | 0 to 29% | 0 to 29% | 0 to 29% |
| COC(=O)c1nc(-c2cc(C#N)c(C(F)(F)F)cc2Cl)c(F)cc1Cl [F321, Methyl 3-chloro-6-(2-chloro-5-cyano-4-(trifluoromethyl)phenyl)-5-fluoropicolinate] | 30 to 44% | 85 to 94% | 0 to 29% | 0 to 29% | 75 to 84% | 95 to 100% | 0 to 29% | 30 to 44% | 0 to 29% | 75 to 84% | 85 to 94% | 95 to 100% | 30 to 44% | 75 to 84% | 0 to 29% |
